Key:
PAK3 = PAK3 (Homo sapiens, UniProt O75914); experiment: Z'Lyte fluorescence-based (FRET) PAK kinase assay, PAK3; assay type: biochemical; conditions: 100 μM ATP
Method: (§1) A fluorescence-based assay format is used to determine IC50 values of test compounds in vitro. Purified PAK kinase is incubated with ATP, and a test compound at various concentrations and a substrate peptide containing two fluorophores. In a second step, the reaction mix is incubated with a site-specific protease that cleaves non-phosphorylated bat not phosphorylated substrate peptide, disrupting the FRET signal generated by the two fluorophores in the cleaved peptide (Z′Lyte™ Kinase assay platform; Life Technologies).
(§2) Reagents: 50 mM HEPES, pH 7.5; 0.01% BRIJ-35; 10 nM MgCl1; 1 mM EGTA, 2 uM substrate peptide Ser/Thr20 (proprietary Life Technologies Sequence), PAK enzyme [2.42-30.8 ng for PAK1, 0.29-6 ng for PAK2, 1.5-20 ng for PAK3 and 0.1-0.86 ng for PAK4; actual enzyme amounts depend on lot activity of the enzyme preparation]
(§3) Test compounds are dissolved in DMSO at various concentrations; the final DMSO concentration in the assay reaction is 1%.
(§4) ATP concentration at Kin apparent is used in the assay [50 ┌M ATP for PAK1 assay, 75 ┌M ATP for PAK2 assay, 100 μM ATP for PAK3 assay, 5 μM ATP for PAK4 assay] in a total assay volume of 10 μl. Assay reactions are incubated at room temperature for 1 hr. Following the kinase reaction, 5 μl of 1:256 dilution of development solution A (Life Technologies) is added and the reaction mix is incubated for an additional 1 hr at room temperature.
(§5) Plates are analyzed in a standard fluorescence plate reader (Tecan or equivalent) using an excitation wavelength of 400 nn and emission wavelengths of 445 nm and 520 nm.
(§6) Inhibition of kinase reaction is determined by emission ratio=emission@445 nm/emission@520 nm
as §1, with “non-phosphorylated but” for “non-phosphorylated bat”, “peptide (Z'Lyte™” for “peptide (Z′Lyte™”, “assay platform” for “assay platform;”
as §2, with “mM MgCl2;” for “nM MgCl1;”
as §4, with “at Km” for “at Kin”, “[50 μMATP” for “[50 ┌M ATP”, “75 µM” for “75 ┌M”, “[…]” for “10 μl.”, “kinase reaction.” for “kinase reaction,”, “[…]” for “5 μl”
(§7) Plates are analyzed in a standard fluorescence plate reader (Teem or equivalent) using an excitation wavelength of 400 nm and emission wavelengths of 445 nm and 520 nm.

PAK2 = PAK2 (Homo sapiens, UniProt Q13177); experiment: Z'Lyte fluorescence-based (FRET) PAK kinase assay, PAK2; assay type: biochemical
Method: as §1, §2, §3, §4, §5, §6
as §1, with “non-phosphorylated but” for “non-phosphorylated bat”, “peptide (Z'Lyte™” for “peptide (Z′Lyte™”, “assay platform” for “assay platform;”
as §2, with “mM MgCl2;” for “nM MgCl1;”
as §4, with “at Km” for “at Kin”, “[50 μMATP” for “[50 ┌M ATP”, “75 µM” for “75 ┌M”, “[…]” for “10 μl.”, “kinase reaction.” for “kinase reaction,”, “[…]” for “5 μl”
as §7

PAK4 = PAK4 (Homo sapiens, UniProt O96013); experiment: Z'Lyte fluorescence-based (FRET) PAK kinase assay, PAK4; assay type: biochemical; conditions: 5 μM ATP
How it was run: (§8)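 Z'Lyte FRET assay: purified PAK with 2 uM Ser/Thr20 peptide in 50 mM HEPES pH 7.5, 10 mM MgCl2, 1% DMSO, ATP at apparent Km (PAK1 50 μM, PAK2 75 μM, PAK3 100 μM, PAK4 5 μM), 1 h room temperature, then 1 h protease development. Inhibition from 445/520 nm emission ratio; IC50 values.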

PAK1 = PAK1 (Homo sapiens, UniProt Q13153); experiment: Z'Lyte fluorescence-based (FRET) PAK kinase assay, PAK1; assay type: biochemical; conditions: 50 μM ATP
How it was run: as §8

[1] = system: C57/black 6 mice temporal cortex slices; experiment: Slice electrophysiology assay (LTP, theta-burst stimulation); assay type: cell-based; conditions: 1 μM compound; temporal cortex slices of C57/black 6 mice
Method: coronal cortical slices (400 μm) containing temporal cortex from 2- to 3-month-old C57-Black-6 mice male littermates (from Elevage Janvier, FRANCE) are prepared and allowed to recover in oxygenated (95% O2 and 5% CO2) warm (30° C.) artificial cerebrospinal fluid (ACSF) containing 124 mM NaCl, 5 mM KCl, 1.25 mM, NaH2PO4, 1 mM MgCl2, 2 mM CaCl2, 26 mM NaHCO3, and 10 mM dextrose.
a 10 mM DMSO stock solution is prepared for each test compound and 100 μL aliquots are stored at −20° C. On the day of experiment an aliquot is thawed and vortexed for fresh solutions preparation. The final concentration of DMSO is adjusted to 0.1% all solutions, including control ACSF solution. […]
a stimulus is applied every 30 s with an intensity settled at 40% of the maximal amplitude responses. […] Potentiation of synaptic transmission is then monitored for an additional 40 minutes period. […]
following a 10 minutes control recording period (to verify baseline stability), the compound is perfused for 20 minutes. Then, LTP is triggered and the fEPSP amplitude will be recorded for an additional 40 minutes period in the presence of compound.
fEPSP amplitudes are measured as the difference between the baseline (before stimulation) and the maximal peak amplitude. The fEPSP are normalized as a percent of the mean averaged amplitude recorded over a 10 min control period, before compound application. […]

[2] = Table 1 of Example 29 (own compound numbering)
[3] = Table 1 of Example 29 (own compound numbering), 75 µM ATP
[4] = Table 1 of Example 100, 75 μM ATP

PAK2, sequence (Q13177 whole entry): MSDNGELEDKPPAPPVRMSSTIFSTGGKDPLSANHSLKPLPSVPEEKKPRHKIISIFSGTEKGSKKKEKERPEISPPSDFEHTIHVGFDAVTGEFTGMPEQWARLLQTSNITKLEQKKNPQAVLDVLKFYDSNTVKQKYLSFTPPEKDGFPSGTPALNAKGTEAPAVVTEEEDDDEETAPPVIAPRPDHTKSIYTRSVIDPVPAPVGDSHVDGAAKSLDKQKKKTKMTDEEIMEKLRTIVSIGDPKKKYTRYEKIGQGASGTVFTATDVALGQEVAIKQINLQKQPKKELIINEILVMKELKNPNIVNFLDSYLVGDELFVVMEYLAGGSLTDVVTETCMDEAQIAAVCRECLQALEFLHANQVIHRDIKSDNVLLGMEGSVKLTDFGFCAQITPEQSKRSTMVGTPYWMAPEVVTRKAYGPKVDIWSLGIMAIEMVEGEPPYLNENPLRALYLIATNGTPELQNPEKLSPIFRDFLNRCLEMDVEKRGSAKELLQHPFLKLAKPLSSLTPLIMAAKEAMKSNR
PAK1, sequence (Q13153 whole entry): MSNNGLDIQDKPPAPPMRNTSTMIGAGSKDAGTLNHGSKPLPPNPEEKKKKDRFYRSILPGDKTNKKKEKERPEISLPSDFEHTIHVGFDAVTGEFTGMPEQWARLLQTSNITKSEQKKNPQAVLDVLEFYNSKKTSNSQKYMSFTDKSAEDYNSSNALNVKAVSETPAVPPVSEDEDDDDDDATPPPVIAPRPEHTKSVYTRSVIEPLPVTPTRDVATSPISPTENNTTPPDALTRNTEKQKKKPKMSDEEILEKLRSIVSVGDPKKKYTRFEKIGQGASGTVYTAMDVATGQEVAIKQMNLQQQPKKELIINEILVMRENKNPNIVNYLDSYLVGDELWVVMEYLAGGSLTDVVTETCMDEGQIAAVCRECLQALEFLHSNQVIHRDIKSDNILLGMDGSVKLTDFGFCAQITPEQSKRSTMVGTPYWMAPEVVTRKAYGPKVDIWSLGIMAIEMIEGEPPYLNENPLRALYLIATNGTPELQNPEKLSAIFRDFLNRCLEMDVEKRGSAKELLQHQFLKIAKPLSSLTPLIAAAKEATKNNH
PAK3, sequence (O75914 whole entry): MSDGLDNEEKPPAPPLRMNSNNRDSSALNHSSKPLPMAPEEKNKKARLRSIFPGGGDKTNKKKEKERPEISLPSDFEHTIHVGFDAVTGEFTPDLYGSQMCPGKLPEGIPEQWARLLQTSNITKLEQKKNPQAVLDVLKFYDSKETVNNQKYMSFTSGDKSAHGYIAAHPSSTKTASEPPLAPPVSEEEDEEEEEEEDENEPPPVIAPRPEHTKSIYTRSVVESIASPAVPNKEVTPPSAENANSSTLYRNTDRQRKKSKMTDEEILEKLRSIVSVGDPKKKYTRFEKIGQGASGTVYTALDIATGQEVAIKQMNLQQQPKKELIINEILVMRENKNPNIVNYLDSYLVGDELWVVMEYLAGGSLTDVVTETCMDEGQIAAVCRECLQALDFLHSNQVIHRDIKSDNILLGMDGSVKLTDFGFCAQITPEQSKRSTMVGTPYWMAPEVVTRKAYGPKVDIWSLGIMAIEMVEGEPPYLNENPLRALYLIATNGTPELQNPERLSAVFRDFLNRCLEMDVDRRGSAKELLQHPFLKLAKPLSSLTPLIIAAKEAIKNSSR
PAK4, sequence (O96013 whole entry): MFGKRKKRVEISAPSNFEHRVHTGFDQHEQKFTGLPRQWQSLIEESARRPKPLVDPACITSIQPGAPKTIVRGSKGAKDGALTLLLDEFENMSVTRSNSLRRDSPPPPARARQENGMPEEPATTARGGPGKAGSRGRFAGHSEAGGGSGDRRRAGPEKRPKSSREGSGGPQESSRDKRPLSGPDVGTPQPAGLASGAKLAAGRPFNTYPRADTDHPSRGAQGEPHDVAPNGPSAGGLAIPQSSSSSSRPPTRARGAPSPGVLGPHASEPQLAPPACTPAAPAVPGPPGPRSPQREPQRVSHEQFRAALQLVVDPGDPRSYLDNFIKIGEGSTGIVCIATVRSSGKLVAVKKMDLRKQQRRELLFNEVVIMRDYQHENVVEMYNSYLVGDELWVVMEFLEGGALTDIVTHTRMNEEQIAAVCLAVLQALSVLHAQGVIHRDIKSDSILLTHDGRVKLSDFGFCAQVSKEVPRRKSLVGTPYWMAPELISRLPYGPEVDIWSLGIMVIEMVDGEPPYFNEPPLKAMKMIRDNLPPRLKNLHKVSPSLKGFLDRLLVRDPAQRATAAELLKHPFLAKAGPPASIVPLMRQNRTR

Structure (SMILES) | IC50 (PAK3; [2]) [nM] | IC50 (PAK2; [3]) [nM] | IC50 (PAK4; [2]) [nM] | IC50 (PAK1; [2]) [nM] | IC50 (PAK3; Table 1 of Example 100) [nM] | IC50 (PAK2; [4]) [nM] | IC50 (PAK4; Table 1 of Example 100) [nM] | IC50 (PAK1; Table 1 of Example 100) [nM] | LTP compared to the baseline in a theta-burst stimulation protocol in the cortex [1]
O=c1c(-c2ccccc2)cc2cnc(Nc3ccc(NC4CCCNC4)cc3)nc2n1Cc1ccccc1C(F)(F)F (stereo not drawn) [Compound 167] | < 1000 | < 1000 | 1000 to 10000 | < 1000 |  |  |  |  | 
COc1cc(Nc2nccc(-c3ccc(NCCN)nc3)n2)cc(OC)c1OC [Compound A, N^1-(5-(2-(3,4,5-trimethoxyphenylamino)pyrimidin-4-yl)pyridin-2-yl)ethane-1,2-diamine] |  |  |  |  |  |  |  |  | increased LTP
CN1CCN(c2ccc(Nc3ncc4ccc(=O)n(C5CCCC5)c4n3)cc2)CC1 [Compound G, 8-cyclopentyl-2-(4-(4-methylpiperazin-1-yl)phenylamino)pyrido[2,3-d]pyrimidin-7(8H)-one] |  |  |  |  |  |  |  |  | increased LTP
CN1CCCC(Nc2ccc(Nc3ncc4ccc(=O)n(Cc5ccccc5C(F)(F)F)c4n3)cc2)C1 (stereo not drawn) [compound 61] |  |  |  |  | < 1000 | < 1000 | < 1000 | < 1000 | 

Now from value to molecule, other results behind:

IC50 (PAK3; [2]) [nM] | IC50 (PAK2; [3]) [nM] | IC50 (PAK4; [2]) [nM] | IC50 (PAK1; [2]) [nM] | IC50 (PAK3; Table 1 of Example 100) [nM] | IC50 (PAK2; [4]) [nM] | IC50 (PAK4; Table 1 of Example 100) [nM] | IC50 (PAK1; Table 1 of Example 100) [nM] | Structure (SMILES) | LTP compared to the baseline in a theta-burst stimulation protocol in the cortex [1]
1000 to 10000 | 1000 to 10000 | 1000 to 10000 | 1000 to 10000 |  |  |  |  | O=c1ccc2cnc(Nc3ccc(N4CCNCC4)cc3)nc2n1C1CCCc2ccccc21 (stereo not drawn) [compound 61] | 
 |  |  |  | < 1000 | < 1000 | 1000 to 10000 | < 1000 | O=c1c(-c2ccccc2)cc2cnc(Nc3ccc(NC4CCCNC4)cc3)nc2n1Cc1ccccc1C(F)(F)F (stereo not drawn) [compound 95] | 

Source: patent US20120270844A1, “METHODS FOR TREATING ALZHEIMER'S DISEASE” (aFRAXis, Inc., priority 2009, published 2012)
